Test results taken from patent EP1792623B1, “Use of extracts and constituents of leontopodium as enhancers of cholinergic function” (Leopold-Franzens-Universität Innsbruck, priority 2005, dated 2007).
Counter-ions that a name gives are not always drawn.

What was measured:
acetylcholinesterase = format: biochemical; conditions: 100 µM, after 60 min, in comparison to medium control, n=4
Procedure: Experiments are carried out applying Ellman's method in a 96-well microplate assay described by Ingkaninan et al, Journal of Chromatography A 827 (2000) p. 6173 and Rhee et al, Journal of Chromatography A 915 (2001) p. 217-223. In addition to buffer A described above, a buffer containing 0.1 M NaCl and 0.02 M MgClx2.6 H2O in buffer A is used for preparing a 3 mM solution of DTNB. For the microplate assay the substrate ATCI is dissolved 15 mM in water (HPLC grade). The enzyme stock solution is diluted with buffer A to get 0.22 U/ml. In the 96-well plates, 25 µl of 15 mM ATCl, 125 µl of 3 mM DTNB, 50 µl of buffer A, and 25 µl of sample (10 mM in MeOH, respectively DMSO (dimethylsulfoxide), diluted ten times with buffer A) are added. […] […] The absorbance of the product (2-nitrobenzoate-5-mercapto thioline) is measured at 405 nm with a Chameleon 5025 (Hidex, Finland) microplate reader 0, 15, 30, 45 and 60 minutes after adding 25 µl of 0.22 U/ml acetylcholinesterase-solution to the reaction mixture. All experiments are performed 4 times (n=4) and the data are statistically processed using the SPSS 11.5 program package. Percentage of inhibition is calculated by comparing the rates for the sample to the blank (10% MeOH, resp. DMSO, in buffer).

[1] = system: C56BL/6N female, 3-month mice; assay: T-maze continuous alternation task; format: in vivo
Procedure: (§1) Animals: C56BL/6N female, 3-month mice, weighing 20 - 27 g, were used in the present study. The animals were housed in groups of six to ten in cages (40 (L) x 25 (W) x 15 (H) cm) placed in a room at a constant temperature (22±1 °C), 12-light/ 12-dark cycle (07:00-19:00 h), with food and water ad libitum. Experiments were conducted between 09:00 and 16:00h.
(§2) Surgery: Mice were anaesthetized with Pentobarbital sodium (60 mg/kg, i.p.) and placed in a stereotaxic frame. A guide cannula (gauge 25, o.d. 0.52 mm, i.d, 0.26 mm and 7 mm long) was stereotaxically implanted through a hole on the skull into the brain area 0.5 mm higher than the third cerebral ventricle (-0.1 mm posterior, 0.8 mm lateral to bregma, -2.2 mm ventral to the dura) (Franklin KBJ, Paxinos G (1997) The mouse brain in stereotaxic coordinates. Academic Press San Diego). Guide cannula was secured to the skull using two small screws and dental cement. The microinjector (Hamilton gauge 32, o.d. 0.24 mm and i.d. 0.11 mm, 7.5 mm long) protruded 0.5 mm from the tip of the guide cannula to reach the cerebral ventricle. Mice recovered for 5 days before any experimentation was done.
(§3) Drugs: Scopolamine hydrobromide (Sigma, St. Louis, MO, U.S.A.) was dissolved in saline. Isocomene was dissolved in vehicle solution (3 parts DMSO : 7 parts sterile water). The animals were randomly divided into experimental groups and administered a cerebral ventricle injection of saline, scopolamine, isocomene or scopolamine and isocomene in a volume µl during 1 min. The injector was left in place an extra 1 min for drug diffusion after injection. These substances and vehicle were injected 15 min prior to the test.
Experimental design and drug application: Animals were randomly divided into three experimental groups (6-9 mice per group) as follows: vehicle; scopolamine hybrobromide 20 µg (50 nmol) in 1µl ICV, isocomene 8.16 µg (40 nmol) in 2µl ICV, and scopolamine hybrobromide 20 µg plus isocomene 2 µg ICV. […]

[2] = system: C56BL/6N female, 3-month mice; assay: Object recognition task (scopolamine-induced learning deficit); format: in vivo
Procedure: as §1, §2, §3
Experimental design and drug application: Animals were randomly divided into […] experimental groups (6-9 mice per group) as follows: vehicle; scopolamine hybrobromide 20 µg (50 nmol) in 1µl ICV, isocomene 8.16 µg (40 nmol) in 2µl ICV, and scopolamine hybrobromide 20 µg plus isocomene 2 µg ICV. All substances were injected 15 min before the test (T-maze and open field) or before the training trial T1 (object recognition test) through the 7.5 mm long injector connected with i.d. 0.28 mm polyethylene tubing to 5 µl Hamilton syringe.
Apparatus: The test apparatus consisted of a box made of Plexiglas (40 (L) x 25 (W) x 15 (H) cm), which was illuminated by a lamp above the box. In the different parts of the apparatus, the light intensity was equal at 100 lux. The objects to be discriminated were made of plastic or metal, were in the different shapes: cubes and cylinders 1.5-cm high in white or green colour; they could not be displaced by mice. In addition, these objects had no genuine significance for mice and had never been associated with a reinforcement.
Procedure: The object recognition test was performed as described elsewhere (Ennaceur A, Delacour J (1988) A new one-trial test for neurobiological studies of memory in rats. 1: Behavioural data. Behav Brain Res. 31: 47-59). On the day before testing, the animals were allowed to explore the apparatus for 10 min (without objects), while on the testing day, a session of two 10-min trials was given. During the training trial (sample trial) (T1), two identical objects were placed opposite sides 8 cm from the short walls. A mouse was placed in the middle of apparatus and was left to explore these two identical objects in 10 min. After T1, the mouse was put back in its home cage and a 24-hour inter-trial interval was given. […]

[3] = scopolamine 20 µg ICV alone, T2
[4] = isocomene 8.16 µg ICV in mice given scopolamine 20 µg ICV

C/C=C(/C)C(=O)OC[C@H]1[C@@H](Cc2ccc(OC)c(OC)c2)CO[C@@H]1c1ccc(OC)c(OC)c1 [[(2S,3R,4R)-4-(3,4-dimethoxy-benzyl)-2-(3,4-dimethoxy-phenyl)tetrahydrofuran-3-yl]methyl-(2Z)-2-methylbut-2-en-oate]
inhibition (%) (acetylcholinesterase): 17.5%

C=C(C)C1COc2cc3oc(=O)ccc3c(OC)c2O1 (centres unmarked) [5-methoxy-obliquin]
inhibition (%) (acetylcholinesterase): 3.4%

C/C=C(/C)C(=O)OC[C@H]1[C@@H](Cc2cc(OC)c(OC)c(OC)c2)CO[C@@H]1c1cc(OC)c(OC)c(OC)c1 [[(2S,3R,4R)-4-(3,4,5-trimethoxy-benzyl)-2-(3,4,5-trimethoxy-phenyl)tetrahydrofuran-3-yl]methyl-(2Z)-2-methylbut-2-en-oate]
inhibition (%) (acetylcholinesterase): -6.4%

ent-kaur-16-enic-19-acid
inhibition (%) (acetylcholinesterase): 35.6%

C=C(C)C1COc2cc3oc(=O)ccc3cc2O1 (centres unmarked) [obliquine]
inhibition (%) (acetylcholinesterase): 18.1%

1-acetyloxy-3-angeloyloxy-(4E,6E)-tetradeca-4,6-dien-8,10,12-triyne and the 4E,6Z isomer
inhibition (%) (acetylcholinesterase): 16.5%

C[C@@H]1CC[C@@H]2C(C)(C)C[C@]3(C)CC=C[C@]123 [silphinene]
inhibition (%) (acetylcholinesterase): 3.2%

CN1[C@@H]2C[C@@H](OC(=O)[C@H](CO)c3ccccc3)C[C@H]1[C@@H]1O[C@@H]12 [Scopolamine, Scopolamine hydrobromide]
alternation rate ([1]; scopolamine 20 µg ICV alone): pronounced decrease in alternation rate | discrimination index [2, 3]: zero | exploration ratio [2, 3]: ~1.0 | exploration time ([2]; scopolamine 20 µg ICV alone, vs vehicle-treated control mice): no significant difference

bisabolan E
inhibition (%) (acetylcholinesterase): 56.9%

C=C(CO)[C@H]1Oc2ccc(C(C)=O)cc2[C@H]1O[C@@H]1O[C@H](CO)[C@@H](O)[C@H](O)[C@H]1O (relative stereo) [1-{(2R*,3R*)-2-[1-(hydroxymethyl)vinyl]-3-(β-D-gluco-pyranosyloxy)-2,3-dihydro-1-benzofuran-5-yl}-ethanone]
inhibition (%) (acetylcholinesterase): -0.6%

isocomene
inhibition (%) (acetylcholinesterase): 39.6% | alternation rate ([1]; 8.16 µg isocomene ICV alone, mean ± SEM, control mice 52 ± 2.46 %): 69.96 ± 2.42% | alternation rate [1, 4]: abolished this effect of scopolamine | discrimination index [2, 4]: potently increased | exploration ratio [2, 4]: potently increased

15-acetoxy-modhephene
inhibition (%) (acetylcholinesterase): 56.4%

β -isocomene
inhibition (%) (acetylcholinesterase): 40.8%

bisabolan A
inhibition (%) (acetylcholinesterase): 23.3%

(4a,7b,8a,9b,15a)-7,9-dihydroxy-15-{[(2Z)-2-methylbut-2-enoyl]oxy} kaur-16-en-19-oate
inhibition (%) (acetylcholinesterase): 53.7%

CC(=O)OCC1=C[C@]2(C)CCC3[C@H](C)CCC32C1C (relative stereo) [[(1R*,3aS,6R)-1,3a,6-trimethyl-1,3a,4,5,5a,6,7,8-octahydrocyclo-penta[c]pentalen-2-yl]methylacetat]
inhibition (%) (acetylcholinesterase): 61.8%

CC1=C[C@@H]2[C@@H](CC1)[C@@](C)(O)CC[C@H]2C(C)C [t-Cadinol]
inhibition (%) (acetylcholinesterase): 10.3%

C/C=C(/C)C(=O)OC[C@H]1[C@@H](Cc2ccc(OC)c(OC)c2)CO[C@@H]1c1cc(OC)c(OC)c(OC)c1 [[(2S,3R,4R)-4-(3,4-dimethoxy-benzyl)-2-(3,4,5-trimethoxy-phenyl)tetrahydrofuran-3-yl]methyl-(2Z)-2-methylbut-2-en-oate]
inhibition (%) (acetylcholinesterase): 5.0%

C=C(C)C1COc2cc3oc(=O)ccc3c(O)c2O1 (centres unmarked) [5-hydroxy-obliquin]
inhibition (%) (acetylcholinesterase): 1.9%
